Laboratory results taken from PubChem BioAssay (NCI).
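Where inhibition never reached the appropriate level, the endpoint shown equals the highest concentration tested. Otherwise, values were interpolated linearly from a five-concentration, 48-hour dose response in 96-well plates. TGI is the concentration that stops growth completely.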

These compounds were tested on HOP-18 NSCLC (assay: NCI tumour cell line growth inhibition, 48 h).
Work on CNC(=O)OCc1nc(SC)n(C)c1COC(=O)NC yielded a TGI of 491 µM.

Each compound was assayed on HOP-62 NSCLC (assay: NCI tumour cell line growth inhibition, 48 h).
NC1=NCN(C2OC(CO)C(O)C2O)C(=O)N1 (stereo not drawn) was tested, and the TGI was 966 µM. With CCCNCCCCC(NC(C)=O)C(=O)NCc1ccccc1 (stereo not drawn) the TGI was > 100 µM. CNC(=O)OCc1nc(SC)n(C)c1COC(=O)NC gave a TGI of 92.2 µM. O=C(O)CSc1n[nH]c(-c2ccco2)n1 was tested, and the TGI was > 100 µM.

The compounds below were run on HOP-92 NSCLC (assay: NCI tumour cell line growth inhibition, 48 h).
With NC1=NCN(C2OC(CO)C(O)C2O)C(=O)N1 (stereo not drawn) the TGI was 1990 µM. CCCNCCCCC(NC(C)=O)C(=O)NCc1ccccc1 (stereo not drawn) was tested, and the TGI was > 100 µM. For CNC(=O)OCc1nc(SC)n(C)c1COC(=O)NC, the TGI was 376 µM. With O=C(O)CSc1n[nH]c(-c2ccco2)n1 the TGI was > 100 µM.

These compounds were tested on HS 578T breast (assay: NCI tumour cell line growth inhibition, 48 h).
NC1=NCN(C2OC(CO)C(O)C2O)C(=O)N1 (stereo not drawn) was tested, and the TGI was 734 µM. With CNC(=O)OCc1nc(SC)n(C)c1COC(=O)NC the TGI was 438 µM.

Each compound was assayed on HT29 colon (assay: NCI tumour cell line growth inhibition, 48 h).
Compound NC1=NCN(C2OC(CO)C(O)C2O)C(=O)N1 (stereo not drawn) has a TGI of 2000 µM. In the case of CCCNCCCCC(NC(C)=O)C(=O)NCc1ccccc1 (stereo not drawn), the TGI is reported as > 100 µM. With CNC(=O)OCc1nc(SC)n(C)c1COC(=O)NC the TGI was 605 µM. For O=C(O)CSc1n[nH]c(-c2ccco2)n1, the TGI was > 100 µM.

What follows are compounds tested on IGROV1 ovarian (assay: NCI tumour cell line growth inhibition, 48 h).
For NC1=NCN(C2OC(CO)C(O)C2O)C(=O)N1 (stereo not drawn), the TGI was 299 µM. CCCNCCCCC(NC(C)=O)C(=O)NCc1ccccc1 (stereo not drawn) was tested, and the TGI was > 100 µM. CNC(=O)OCc1nc(SC)n(C)c1COC(=O)NC showed a TGI of 531 µM. In the case of O=C(O)CSc1n[nH]c(-c2ccco2)n1, the TGI is reported as > 100 µM.

These compounds were tested on K-562 leukemia (assay: NCI tumour cell line growth inhibition, 48 h).
With NC1=NCN(C2OC(CO)C(O)C2O)C(=O)N1 (stereo not drawn) the TGI was 788 µM. CCCNCCCCC(NC(C)=O)C(=O)NCc1ccccc1 (stereo not drawn) was tested, and the TGI was > 100 µM. For CNC(=O)OCc1nc(SC)n(C)c1COC(=O)NC, the TGI was 508 µM. With O=C(O)CSc1n[nH]c(-c2ccco2)n1 the TGI was > 100 µM.

These compounds were tested on KM12 colon (assay: NCI tumour cell line growth inhibition, 48 h).
For NC1=NCN(C2OC(CO)C(O)C2O)C(=O)N1 (stereo not drawn), the TGI was 674 µM. CCCNCCCCC(NC(C)=O)C(=O)NCc1ccccc1 (stereo not drawn) was tested, and the TGI was > 100 µM. CNC(=O)OCc1nc(SC)n(C)c1COC(=O)NC showed a TGI of 380 µM. With O=C(O)CSc1n[nH]c(-c2ccco2)n1 the TGI was > 100 µM.

The compounds below were run on KM20L2 colon (assay: NCI tumour cell line growth inhibition, 48 h).
For NC1=NCN(C2OC(CO)C(O)C2O)C(=O)N1 (stereo not drawn), the TGI was 1530 µM. With CCCNCCCCC(NC(C)=O)C(=O)NCc1ccccc1 (stereo not drawn) the TGI was > 100 µM. With CNC(=O)OCc1nc(SC)n(C)c1COC(=O)NC the TGI was 482 µM. For O=C(O)CSc1n[nH]c(-c2ccco2)n1, the TGI was > 100 µM.

What follows are compounds tested on LOX IMVI melanoma (assay: NCI tumour cell line growth inhibition, 48 h).
With NC1=NCN(C2OC(CO)C(O)C2O)C(=O)N1 (stereo not drawn) the TGI was 135 µM. CCCNCCCCC(NC(C)=O)C(=O)NCc1ccccc1 (stereo not drawn) was tested, and the TGI was > 100 µM. In the case of CNC(=O)OCc1nc(SC)n(C)c1COC(=O)NC, the TGI is reported as 364 µM. With O=C(O)CSc1n[nH]c(-c2ccco2)n1 the TGI was > 100 µM.

What follows are compounds tested on LXFL 529 NSCLC (assay: NCI tumour cell line growth inhibition, 48 h).
With CCCNCCCCC(NC(C)=O)C(=O)NCc1ccccc1 (stereo not drawn) the TGI was > 100 µM. O=C(O)CSc1n[nH]c(-c2ccco2)n1 was tested, and the TGI was > 100 µM.

Each compound was assayed on M14 melanoma (assay: NCI tumour cell line growth inhibition, 48 h).
NC1=NCN(C2OC(CO)C(O)C2O)C(=O)N1 (stereo not drawn) gave a TGI of 405 µM. In the case of CCCNCCCCC(NC(C)=O)C(=O)NCc1ccccc1 (stereo not drawn), the TGI is reported as > 100 µM. With CNC(=O)OCc1nc(SC)n(C)c1COC(=O)NC the TGI was 347 µM. O=C(O)CSc1n[nH]c(-c2ccco2)n1 was tested, and the TGI was > 100 µM.

The compounds below were run on M19-MEL melanoma (assay: NCI tumour cell line growth inhibition, 48 h).
With NC1=NCN(C2OC(CO)C(O)C2O)C(=O)N1 (stereo not drawn) the TGI was 1760 µM. CCCNCCCCC(NC(C)=O)C(=O)NCc1ccccc1 (stereo not drawn) was tested, and the TGI was > 100 µM. CNC(=O)OCc1nc(SC)n(C)c1COC(=O)NC showed a TGI of 369 µM. With O=C(O)CSc1n[nH]c(-c2ccco2)n1 the TGI was > 100 µM.

The compounds below were run on MALME-3M melanoma (assay: NCI tumour cell line growth inhibition, 48 h).
NC1=NCN(C2OC(CO)C(O)C2O)C(=O)N1 (stereo not drawn) showed a TGI of 128 µM. In the case of CCCNCCCCC(NC(C)=O)C(=O)NCc1ccccc1 (stereo not drawn), the TGI is reported as > 100 µM. CNC(=O)OCc1nc(SC)n(C)c1COC(=O)NC was tested, and the TGI was 253 µM. In the case of O=C(O)CSc1n[nH]c(-c2ccco2)n1, the TGI is reported as > 100 µM.

What follows are compounds tested on MCF7 breast (assay: NCI tumour cell line growth inhibition, 48 h).
NC1=NCN(C2OC(CO)C(O)C2O)C(=O)N1 (stereo not drawn) was tested, and the TGI was 328 µM. In the case of CNC(=O)OCc1nc(SC)n(C)c1COC(=O)NC, the TGI is reported as 622 µM.

The compounds below were run on MDA-MB-231 breast (assay: NCI tumour cell line growth inhibition, 48 h).
For NC1=NCN(C2OC(CO)C(O)C2O)C(=O)N1 (stereo not drawn), the TGI was 568 µM. CNC(=O)OCc1nc(SC)n(C)c1COC(=O)NC gave a TGI of 430 µM.

Each compound was assayed on MDA-MB-435 (assay: NCI tumour cell line growth inhibition, 48 h).
NC1=NCN(C2OC(CO)C(O)C2O)C(=O)N1 (stereo not drawn) was tested, and the TGI was 154 µM. With CNC(=O)OCc1nc(SC)n(C)c1COC(=O)NC the TGI was 327 µM.

The compounds below were run on MDA-N (assay: NCI tumour cell line growth inhibition, 48 h).
With NC1=NCN(C2OC(CO)C(O)C2O)C(=O)N1 (stereo not drawn) the TGI was 381 µM. CNC(=O)OCc1nc(SC)n(C)c1COC(=O)NC was tested, and the TGI was 310 µM.

What follows are compounds tested on MOLT-4 leukemia (assay: NCI tumour cell line growth inhibition, 48 h).
NC1=NCN(C2OC(CO)C(O)C2O)C(=O)N1 (stereo not drawn) gave a TGI of 152 µM. CCCNCCCCC(NC(C)=O)C(=O)NCc1ccccc1 (stereo not drawn) was tested, and the TGI was > 100 µM. In the case of CNC(=O)OCc1nc(SC)n(C)c1COC(=O)NC, the TGI is reported as 142 µM. With O=C(O)CSc1n[nH]c(-c2ccco2)n1 the TGI was > 100 µM.

These compounds were tested on NCI-H226 lung (assay: NCI tumour cell line growth inhibition, 48 h).
For NC1=NCN(C2OC(CO)C(O)C2O)C(=O)N1 (stereo not drawn), the TGI was 414 µM. For CCCNCCCCC(NC(C)=O)C(=O)NCc1ccccc1 (stereo not drawn), the TGI was > 100 µM.
